Laboratory results reported in ChEMBL document CHEMBL1150109, “New cytotoxic coumarins and prenylated benzophenone derivatives from the bark of Ochrocarpos punctatus from the Madagascar rainforest” (J Nat Prod, 2002).
In brackets after ≈: the same amount, converted by molar mass.

What follows are compounds tested on A2780 (assay: Cytotoxicity against human A2780 cells).
Format: functional, cell-based
`CCC(C)C(=O)c1c2c(c3oc(=O)cc(-c4ccccc4)c3c1O)CC(C(C)(C)O)O2` (stereo unspecified) was tested, and the IC50 was 8.2 µg/mL (≈ 19.4 µM).
Compound `CC(C)CC(=O)c1c2c(c3oc(=O)cc(-c4ccccc4)c3c1O)CC(C(C)(C)O)O2` (stereo unspecified) has an IC50 of 6.4 µg/mL (≈ 15.1 µM).
`CCC(C)C(=O)c1c2c(c3oc(=O)cc(-c4ccccc4)c3c1O)C=CC(C)(C)O2` (stereo unspecified) gave an IC50 of 4.5 µg/mL (≈ 11.1 µM).
With `CCCC(=O)c1c2c(c3oc(=O)cc(-c4ccccc4)c3c1O)CC(C(C)(C)O)O2` (stereo unspecified) the IC50 was 4.4 µg/mL (≈ 10.8 µM).
Compound `CC(C)=CCC1CC2(CC=C(C)C)C(=O)C3=C(OC(C)(C)C(OO)C3)C(C(=O)c3ccccc3)(C2=O)C1(C)C` (stereo unspecified) has an IC50 of 8.4 µg/mL (≈ 15.7 µM).
With `CCC(OC(C)=O)c1cc(=O)oc2c3c(c(C(=O)[C@@H](C)CC)c(O)c12)OC(C(C)(C)O)C3` (single isomer, unassigned) [OCHROCARPIN G] the IC50 was 8.6 µg/mL (≈ 19.3 µM).
`CC(C)C(=O)c1c2c(c3oc(=O)cc(-c4ccccc4)c3c1O)C=CC(C)(C)O2` [MESUAGIN] was tested, and the IC50 was 10.8 µg/mL (≈ 27.7 µM).
Work on `CC[C@H](C)C(=O)c1c(O)c2c(-c3ccccc3)cc(=O)oc2c2cc(C(C)(C)O)oc12` [OCHROCARPIN A] yielded an IC50 of 5.2 µg/mL (≈ 12.4 µM).
In the case of `CC(C)CC(=O)c1c(O)c2c(-c3ccccc3)cc(=O)oc2c2cc(C(C)(C)O)oc12` [OCHROCARPIN B], the IC50 is reported as 3.8 µg/mL (≈ 9.04 µM).
`CC(C)C(=O)c1c(O)c2c(-c3ccccc3)cc(=O)oc2c2cc(C(C)(C)O)oc12` [OCHROCARPIN C] was tested, and the IC50 was 3.7 µg/mL (≈ 9.1 µM).
Compound `CC[C@H](C)C(=O)c1c(O)c2c(-c3ccccc3)cc(=O)oc2c2cc(C(C)(C)OC)oc12` [OCHROCARPIN D] has an IC50 of 6.3 µg/mL (≈ 14.5 µM).
Compound `CC(C)C(=O)c1c(O)c2c(c3c(-c4ccccc4)cc(=O)oc13)OC(C(C)(C)O)C2` (stereo unspecified) [OCHROCARPIN E] has an IC50 of 4.9 µg/mL (≈ 12 µM).
Compound `CC[C@H](C)C(=O)c1c2c(c3oc(=O)cc([C@@H](CC)OC(C)=O)c3c1O)CC(C(C)(C)O)O2` (stereo partly specified) [OCHROCARPIN F] has an IC50 of 8.9 µg/mL (≈ 19.9 µM).
`CC(C)=CCC1CC2(CC=C(C)C)C(=O)C(C(=O)c3ccccc3)(C(=O)C3=C2OC(C)(C)C(OO)C3)C1(C)C` (stereo unspecified) [OCHROCARPINONE A] gave an IC50 of 6.9 µg/mL (≈ 12.9 µM).
`CC(C)=CCC1CC2(CC=C(C)C)C(=O)C3=C(OC(C(C)(C)O)C3)C(C(=O)c3ccccc3)(C2=O)C1(C)C` (stereo unspecified) [OCHROCARPINONE B] showed an IC50 of 7.4 µg/mL (≈ 14.3 µM).
`CC(C)=CCC1CC2(CC=C(C)C)C(=O)C(C(=O)c3ccccc3)(C(=O)C3=C2OC(C(C)(C)O)C3)C1(C)C` (stereo unspecified) [OCHROCARPINONE C] showed an IC50 of 8.2 µg/mL (≈ 15.8 µM).
